Experiment [1] has as its system TNF-α, TGF-β and ICAM-1 mRNA in wounds. The experiment in a line: Cytokine and chemokine mRNA in wound tissue, qPCR. The format is in vivo. To be noted: day 10 post-wounding, 10 μg/mouse topically. How it is done: Cutaneous would healing is characterized by an initial inflammatory response. To evaluate the effect of brassinosteroids on inflammation in wound healing, mRNA levels of proinflammatory cytokines TNF-α and TGF-β and an adhesion chemokine ICAM-1 were measured in the wound tissue of control and treated mice on day 10 post-wounding and treatment with HB, positive control (CGS-21680), or negative control (vehicle).
Total RNA was extracted from fibroblasts using Trizol (Invitrogen, Carlsbad, Calif.). RNA was quantified spectrophotometrically by absorbance measurements at 260 and 280 nm using the NanoDrop reader (NanoDrop Technologies, Wilmington, Del.). Quality of RNA was assessed by gel electrophoresis. RNA was then treated with DnaseI (Invitrogen, Carlsbad, Calif.) to remove traces of DNA contamination and the cDNAs were synthesized with 2.5 μg of RNA using Stratascript reverse transcriptase (Stratagene, Santa Clara, Calif.) according to the manufacturers' protocols. Quantitative PCR was performed in duplicate essentially as described previously (Komarnytsky et al., Int. J. Obes. 35: 236-43, 2011) using the following gene-specific primers (IDT, Coralville, Iowa) selected using the Primer Express 2.0 software (Applied Biosystems, Foster City, Calif.): β-actin, forward primer 5′-GGGAAATCGTGCGTGACATT-3′ (SEQ ID NO: 5), and reverse primer 5′-GCG GCA GTG GCC ATC TC-3′ (SEQ ID NO: 6). Target gene expression of the housekeeping gene β-actin was assigned a value of 1. Samples were subjected to a melting curve analysis to confirm the amplification specificity. The relative change in the […] with respect to the endogenous control gene was determined using 2ΔΔCT method (Winer et al., Anal. Biochem. 270: 41-9, 1999).
For orientation: Quantitative PCR measures a nucleic acid by following its amplification.

Experiment [2] deals with cutaneous wound in C57BL/6J mice. Briefly: Mouse cutaneous injury model of wound healing. To be noted: 10 μg/mouse/day topically for 10 days. In kind it is in vivo. How it is done:
Under volatile anesthesia (5% isoflurane to effect), the shoulder and back region of each animal was shaved. A sharp punch (ID 6 mm) over their lumbar spine was applied to remove the skin, including panniculus carnosus and adherent tissues. Test substances were administered topically (TOP), immediately following cutaneous injury, once daily for 10 consecutive days. […] Wounds were traced onto clear plastic sheets and were measured by use of an ImageJ program (rsbweb.nih.gov/ij/), online from the National Institutes of Health (NIH). ImageJ is a public domain, Java-based image processing program developed at the NIH. Time to wound closure was estimated by comparing the area of the wound undergoing treatment to the areas of the wound undergoing control treatments. The percent closure of the wound (%) was calculated, and wound half-closure time (the time at which 50% of the cutaneous wound is closed, CT50) was analyzed by linear regression using Graph-Prism (Graph Software USA). At the end of experiment (10 days after the induction of the wound), animals were euthanized by CO2 gas inhalation. Blood was collected by heart puncture. Wound tissue and muscle were collected for immunohistochemical analyses and wound healing factor assays. HB increased the percent of wound closure in vivo in a mouse model of wound closure (FIG. 13). […] Twenty seven six-week-old male C57BL/6J mice, obtained from the Jackson Laboratory (Bar Harbor, Me.), were housed in individual chambers in a room maintained at a constant temperature with 12 h light-dark cycle. Mice had free access to food and water. Mice were allowed to adapt to new conditions for seven days and handling the mice was performed daily during this time to reduce the stress of physical manipulation. Mice were randomized into groups (n=9) according to body weight one day prior to dosing. Under volatile anesthesia (5% isoflurane to effect), the shoulder and back region of each animal was shaved. A sharp punch (ID 6 mm) over lumbar spine was applied to remove the skin including panniculus carnosus and adherent tissues. […] Pharmacol. 77: 1117-1124, 2009) as a positive control) was administered topically, immediately following cutaneous injury, and then daily for 10 days. To investigate the kinetics of wound healing, wound size was photographed and measured every two days with ImageJ software (rsbweb.nih.gov/ij/). […] The percent closure of the wound (%) was calculated, and time at which 50% of the cutaneous wound was closed (CT50) was analyzed by linear regression. […] Wound sizes were photographed and measured every 2 days for 10 days. Wound closure (%) relative to day 1 was determined every 2 days, and CT50 was calculated by linear regression. […]

For experiment [3], the system named is elastin mRNA in human neonatal dermal fibroblasts (HNDF). The experiment in a line: Elastin gene expression in human dermal fibroblasts, qPCR. The format is cell-based. To be noted: 16 h. As for the experimental part:
Human neonatal dermal fibroblasts (HNDF) were maintained in DMEM+10% FBS and were kept in a humidified 37° C. incubator with 5% CO2. Cells were plated at a density of 1×10^4 cells per well in a 24-well plate and incubated for 24 h, or until 100% confluency was reached. Subsequently, the media was removed and cells were washed with 500 μL PBS twice to remove detached cells or cell debris. HNDF were then treated for 16 h as follows: DMEM only, retinoic Acid 5 μM, retinoic acid 10 μM, Homocastasterone 5 μM and Homocastasterone 10 μM.
RNA was extracted from HNDF using Trizol reagent (Invitrogen) following manufacturer instructions. RNA was quantified spectrophotometrically by absorbance measurements at 260 nm and 280 nm using the NanoDrop system (NanoDrop Technologies, Wilmington, Del.). Quality of RNA was assessed by separation in gel-electrophoresis. To remove any traces of DNA contamination, RNA was then treated with Dnase I (Invitrogen) following the manufacturer guidelines. Complementary DNAs (cDNAs) were synthesized using 3.0 μg of RNA for each sample using Applied Biosystems High Capacity cDNA Reverse Transcription Kit following the manufacturer's protocol.
Quantitative RT-PCR (qPCR) amplifications were carried out in triplicate on an ABI 7300 Real-Time Detection System in a total volume of 25 μl containing 12.5 μl Brilliant SYBR® Green PCR master mix (Applied Biosystems), 5 μl of the 1:25 diluted cDNA, 0.5 μl of 6 μM gene-specific primers (IDT, Coralville, Iowa) and […] PCR-grade water. Primers were synthesized by Integrated DNA Technologies, Inc. (Coralville, Iowa, USA) as follows: β-actin, forward primer 5′-ACGTTGCTATCCAGGCTGTGCTAT-3′ (SEQ ID NO: 1), reverse primer 5′-CTCGGTGAGGATCTTCATGAGGTAGT-3′ (SEQ ID NO: 2); elastin, forward primer 5′-AAGCAGCAGCAAAGTTCGGT-3′ (SEQ ID NO: 3), and reverse primer 5′-ACTAAGCCTGCAGCAGCTCCATA-3′ (SEQ ID NO: 4). qPCR amplifications were performed on the 7300 Real Time PCR System (A&B Applied Biosystems) using 1 cycle at 50° C. for 2 min, 1 cycle at 95° C. for 10 min, followed by 40 cycles of 15 s at 95° C. and 1 min at 60° C. The dissociation curve was completed with one cycle of 15 s at 95° C., 1 min at 60° C., and 15 s of 95° C. No RT (NRT) and no template control (NTC) were included in each experiment as quality control steps. Target mRNA expression was analyzed using the ΔΔCt method and normalized with respect to the expression of the β-actin housekeeping gene. Cells treated with DMEM only (negative control) served as the calibrator sample in this study, and a value of 1.0 was assigned to the target gene expression of the calibrator sample. All samples were run in triplicate. A p value of 0.001 was considered to be significant.

The next experiment has as its system L6 rat myotubes. The experiment in a line: Protein synthesis, [3H]-phenylalanine incorporation in myotubes. The format is cell-based. To be noted: IGF-1 6.5 nM positive control, 4 h. How it is done:
In some aspects, cell culture experiments were carried out. Rat L6 skeletal muscle cell line CRL-1458 was obtained from ATCC (Manassas, Va.). Myoblasts were routinely maintained in Dulbecco's modified Eagle's medium (DMEM) containing 10% FBS and 0.1% penicillin-streptomycin at 37° C. and 5% CO2. Cells were subcultured into 24-well plates for protein synthesis, degradation, and cell viability studies and into 6-well plates for Western blot analyses (Greiner Bio One, Monroe, N.C.). Once cells reached 90% confluence, differentiation was induced by lowering the serum concentration to 2%, and medium was changed every 2 days. After 7-9 days of culture the myoblasts had fused into multinucleated myotubes (Mandel et al., Nature 251:618-620, 1974). NIH 3T3 murine embryonic fibroblast cell line (ATCC #CCL-92) was maintained in DMEM and 10% FBS at 37° C. in 5% CO2, and passaged every 3-4 days.
In various aspects, protein synthesis is measured to determine the effect of brassinosteroid on a particular protein. All known methods for measuring protein synthesis are included in the methods of the disclosure. In brassinosteroid dose response studies, fully differentiated myotubes were washed with serum-free DMEM and treated in triplicate with vehicle (0.1% ethanol), increasing concentrations of HB, or 6.5 nM of insulin-like growth factor-1 (IGF-1) as a positive control. Compounds were added to serum-free medium containing 0.5 μCi/mL [^3H]-phenylalanine and incubated for 4 h. For the HB time course study, fully differentiated myotubes were treated with 3 μM HB for 1-24 h using the same culture conditions. The incubation was stopped by placing cells on ice, discarding the medium, and washing the cells extensively with ice-cold PBS to remove the non-incorporated radiolabel. Proteins were precipitated with 5% trichloroacetic acid and dissolved in 0.5N NaOH (Montgomery et al., Methods Cell. Sci. 24:123-129, 2002). Specific radioactivity of protein-bound phenylalanine was quantified using liquid scintillation counter LS 6500 (Beckman Coulter, Fullerton, Calif.) and normalized to mg of total protein determined by BCA protein assay (Pierce Biotechnology, Rockford, Ill.).
The bioactivity of HB and its analogs was evaluated by measuring increases in protein synthesis in the L6 rat skeletal muscle cells in vitro. Cells were incubated for 4 h with [^3H]-phenylalanine and treated in triplicate with vehicle (0.1% ethanol) or test compound (10 μM), and protein synthesis was measured as incorporation of [^3H]-phenylalanine into protein normalized by total protein (Table 3). Under these conditions, both HB and (22S,23S)-homocastasterone increased protein synthesis by 37.2±5.9% (p<0.001) and 41.0±2.7% (p<0.001), respectively. This protein synthesis increase compared favorably to the biological activity of IGF-1 at 6.5 nM (42.5±4.5%, p<0.001) that served as a positive control in this assay. Removal of the 2α-hydroxyl group and fluorination at C-3 in the A ring (compound IDs 3-4 in Table 3) led to about a 50% decrease in bioactivity (24.6±5.3%, p<0.01 and 22.5±2.7%, p<0.01, respectively) compared to the positive control. However, there was still an increase in protein synthesis. […] Modifications in the side chain (compound IDs 7-9 in Table 3) abolished the activity.

The subject of experiment [4] is AKT (Ser473) phosphorylation in L6 myotubes. Briefly: AKT (Ser473) phosphorylation, Western blot. The format is cell-based, rat. How it is done:
In some aspects, Western blot analyses were carried out. Fully differentiated L6 myotubes were cultured as described above, and whole cell extracts were prepared in ice-cold RIPA buffer supplemented with 10 mM sodium fluoride, 2 mM sodium orthovanadate, 1 mM PMSF, and protease inhibitor cocktail (Sigma) and centrifuged at 12,000 g for 20 min at 4° C. Equal amounts of protein (50 μg) from the supernatants were separated on 10% SDS polyacrylamide gels and blotted onto the nitrocellulose membrane. Western blot detection was carried out with monoclonal phospho-AKT (Ser473) antibodies according to the manufacturer's instructions (Cell Signaling Technology, Danvers, Mass.). After being washed, the blots were incubated with an anti-rabbit peroxidase-labeled secondary antibody and visualized using ECL Western Blotting Detection Reagent (GE Healthcare, Piscataway, N.J.). After being stripped, the same blots were probed with total AKT antibodies to serve as loading controls.
On the technique in general: In western blotting, separated proteins are transferred to a membrane and probed.

Marks after values point to notes of the source that are not given here.

Take `CCNC(=O)[C@H]1O[C@@H](n2cnc3c(N)nc(NCCc4ccc(CCC(=O)O)cc4)nc32)[C@H](O)[C@@H]1O` [CGS-21680, reference compound]: in experiment [1], the “ICAM-1 mRNA in wound tissue” value is “no effect”, the “TGF-β mRNA in wound tissue” value was “no effect” and the “TNF-α mRNA in wound tissue” value is “remarkable suppression”. The “CT50, time at which 50% of the cutaneous wound is closed” value in experiment [2] turned out to be 6.2 ± 0.4 days.

Regarding `CC1=C(/C=C/C(C)=C/C=C/C(C)=C/C(=O)O)C(C)(C)CCC1` [Retinoic Acid, reference compound], the “Increase in elastin mRNA levels (-fold over control)” value in experiment [3] (5 μM) is listed as 2.9** fold; in experiment [3] (10 μM) it was 2.7** fold.

On to “IGF-1: Insulin-like growth factor 1, positive control for protein synthesis”, for which the “Protein synthesis (% increase over control)” value in the experiment with L6 rat myotubes stood at 42.5±4.5%. Moreover, the “time to AKT phosphorylation” value in experiment [4] was at most 10 min.

These data come from patent US20140128357A1, “METHODS OF PRODUCING AND USING BRASSINOSTEROIDS TO PROMOTE GROWTH, REPAIR AND MAINTENANCE OF SKELETAL MUSCLE AND SKIN” (Rutgers University, priority 2010, published 2014).
